Legend:
Assay type in all cases: biochemical
[1] = molecular target: T1, canine heme-regulated inhibitor (HRI), heme-regulated eIF2α kinase (Canis lupus, UniProt C4PB17); experiment: AlphaScreen kinase assay with purified HRI, biotinylated Poly-GT substrate, […] ATP
T1 construct: full-length HRI, His6-tagged, expressed in Sf9 cells

[2] = molecular target: T2, human heme-regulated inhibitor (HRI), heme-regulated eIF2α kinase (Homo sapiens, UniProt Q9BQI3); experiment: in-vitro kinase assay (AlphaScreen) with purified HRI
T2 construct: gene EIF2AK1; expressed in Sf9 cells, purified by Ni-NTA

[3] = molecular target: T3, mouse heme-regulated inhibitor (HRI), heme-regulated eIF2α kinase (Mus musculus, UniProt Q9Z2R9); experiment: as above
T3 construct: gene Eif2ak1; expressed in Sf9 cells, purified by Ni-NTA

Measured: IC50

T2 sequence (Q9BQI3 whole entry): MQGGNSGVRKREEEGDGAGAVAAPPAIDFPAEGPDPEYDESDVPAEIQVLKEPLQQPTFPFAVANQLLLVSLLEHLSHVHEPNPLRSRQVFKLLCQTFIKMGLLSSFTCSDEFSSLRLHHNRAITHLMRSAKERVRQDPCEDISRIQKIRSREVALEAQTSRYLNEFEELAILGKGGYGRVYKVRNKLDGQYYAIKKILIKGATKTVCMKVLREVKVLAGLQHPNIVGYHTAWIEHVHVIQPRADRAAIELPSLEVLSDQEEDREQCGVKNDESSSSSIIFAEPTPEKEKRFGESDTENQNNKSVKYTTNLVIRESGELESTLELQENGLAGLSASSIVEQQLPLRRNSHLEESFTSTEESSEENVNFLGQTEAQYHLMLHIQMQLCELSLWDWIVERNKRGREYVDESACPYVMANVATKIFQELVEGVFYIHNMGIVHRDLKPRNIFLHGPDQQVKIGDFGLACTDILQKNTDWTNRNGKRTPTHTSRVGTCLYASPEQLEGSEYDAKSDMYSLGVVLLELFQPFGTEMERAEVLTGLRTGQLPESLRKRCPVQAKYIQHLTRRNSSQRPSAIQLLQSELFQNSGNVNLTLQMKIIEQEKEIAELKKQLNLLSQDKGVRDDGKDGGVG
T1 sequence (C4PB17 1-630): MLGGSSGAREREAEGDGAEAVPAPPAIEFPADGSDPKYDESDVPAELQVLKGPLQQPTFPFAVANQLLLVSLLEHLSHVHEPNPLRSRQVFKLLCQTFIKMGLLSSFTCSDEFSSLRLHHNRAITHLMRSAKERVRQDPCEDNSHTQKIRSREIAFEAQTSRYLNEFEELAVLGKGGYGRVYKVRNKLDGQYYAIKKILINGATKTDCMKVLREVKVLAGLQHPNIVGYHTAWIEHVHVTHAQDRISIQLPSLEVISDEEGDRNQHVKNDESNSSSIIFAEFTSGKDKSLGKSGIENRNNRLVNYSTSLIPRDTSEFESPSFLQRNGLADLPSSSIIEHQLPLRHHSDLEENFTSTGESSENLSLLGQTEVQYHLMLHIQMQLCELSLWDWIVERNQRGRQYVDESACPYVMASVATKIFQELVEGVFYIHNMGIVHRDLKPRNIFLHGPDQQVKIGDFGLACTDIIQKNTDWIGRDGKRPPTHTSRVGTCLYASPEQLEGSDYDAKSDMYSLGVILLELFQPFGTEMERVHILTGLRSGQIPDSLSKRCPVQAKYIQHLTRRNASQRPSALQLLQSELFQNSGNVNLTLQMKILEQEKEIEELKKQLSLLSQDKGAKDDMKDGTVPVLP
T3 sequence (Q9Z2R9 whole entry): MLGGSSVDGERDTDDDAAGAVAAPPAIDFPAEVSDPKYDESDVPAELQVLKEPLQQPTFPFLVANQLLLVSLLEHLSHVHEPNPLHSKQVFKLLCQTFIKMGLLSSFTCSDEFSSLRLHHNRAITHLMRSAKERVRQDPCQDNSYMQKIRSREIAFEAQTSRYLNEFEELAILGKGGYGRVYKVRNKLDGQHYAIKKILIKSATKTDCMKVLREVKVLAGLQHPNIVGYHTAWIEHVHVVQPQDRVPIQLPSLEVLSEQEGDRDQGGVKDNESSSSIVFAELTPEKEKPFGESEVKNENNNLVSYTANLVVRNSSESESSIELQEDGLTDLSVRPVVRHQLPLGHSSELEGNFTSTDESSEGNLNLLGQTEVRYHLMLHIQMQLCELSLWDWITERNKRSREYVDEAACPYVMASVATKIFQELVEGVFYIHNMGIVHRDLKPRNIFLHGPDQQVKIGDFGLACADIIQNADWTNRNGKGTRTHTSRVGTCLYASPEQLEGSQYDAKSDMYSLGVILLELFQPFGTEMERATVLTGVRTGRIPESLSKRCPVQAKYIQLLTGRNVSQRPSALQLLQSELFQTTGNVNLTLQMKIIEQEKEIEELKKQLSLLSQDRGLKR

O=c1c(O)c(-c2ccc(O)c(O)c2)oc2cc(O)cc(O)c12 [quercetin, 3,3′,4′,5,7-pentahydroxyflavone]
~1000 nM: all assays above
